This note sets out measurements from patent publication US6747050B1, “Isoxazoline derivative and a process for the preparation thereof” (LG Chem Investment Ltd., priority 1999, dated 2004).

For series [1], the system named is IL-1β production in human peripheral lymphocytes. As to the kind of experiment: IL-1β production in LPS-stimulated human peripheral lymphocytes (intracellular Caspase-1 inhibition). Conditions: Lymphocyte, 10 ng/ml LPS, 12 hours, read-out: CIC50 (IL-1β production). The class given is cell-based. The procedure: Inhibitory activity for Caspase-1 was determined by screening the effects of the compounds on the IL-1β production in the periphery lymphocytes stimulated with LPS. Briefly, 500,000 cells/ml of human peripheral lymphocytes were treated with the test compounds at various concentrations for 2 hours and then with 10 ng/ml of LPS. After incubating the cells for 12 hours, the supernatant samples from the media were analysed by immunoantibody analysis (Amersham) in which 100 ng/well of human IL-1β antibody is coated (Range: CIC50: 0.1˜10 μM).

The subject of series [2] is Recombinant human caspase-1, -2, -3, -4, -6, -7, -8 and -9. As to the kind of experiment: Inhibition of caspase activity in cell free system (chromogenic pNA substrates). It counts as biochemical. Particulars: 100 μM compound. The protocol:
The pharmacological efficacy of the compound according to the present invention was evaluated by the following experiments. Con A was purchased from Boehringer Mannheim GmbH (Mannheim, Germany). Peptide-based substrates of caspases (Ac-YVAD-pNA for caspase-1, Ac-VDVAD for caspase-2, Ac-DEVD-pNA for caspase-3, 7, 8, and 9, Ac-LEVD-pNA for caspase-4, and Ac-VEID-pNA for caspase-6) and peptide-based caspase inhibitors (Ac-DEVD-fmk, z-VAD-CHO) were purchased from Alexis Co. (San Diego, Calif.). Ac-DEVD-CHO and z-DEVD-cmk were purchased from Bachem; Anti Fas antibody was purchased from Oncor (Cat#A8050); WI38 cell was available from ATCC; IFN-gamma was purchased from LG Pharmaceuticals (Korea). All cell culture-media and supplements were purchased from Gibco BRL (Tsuen Wan, Hong Kong) unless mentioned otherwise. […]
Caspase activity was tested by mewing proteolytic cleavage of peptide-based chromogenic substrate by each enzyme. […] Aliquots of the enzyme (2 μl containing catalytic activity of 0.2 absorbance at 405 nm/h) were mixed with 150 μl of 200 μM chromogenic substrate in the presence or absence of 100 μM compound 33 m, 96-well plates. […] The absorbance of enzymatically released pNA was measured discontinuously at 405 nm in a microplate reader for 1 hr. The caspase activity was calculated from initial velocity (meant±SE)(n=4, in which n represents the number of repeated experiment).

The next series concerns PARP cleavage. The experiment in a line: Western blotting of PARP cleavage in liver lysate of Con A-treated mice. The class given is in vivo. Particulars: various doses. The protocol: In this experiment, the cleavage of PARP was identified by the appearance on Western blot analysis of an 85 kda-cleavage product in hepatic cell lysate obtained from mice treated with Con A and various doses of the compound of formula (I).
Freshly harvested livers treated with Con A or PBS together with various doses of compound 33 were rinsed in cold PBS and homogenized into three volumes per weight of cold PBS containing 1% Nonidet P-40, 0.1% SDS, 1 mM PMSF, and protease inhibitor cocktail tablet Complete (Boehnger Mannheim, used according to manufacturer's instruction). The homogenates were incubated on ice for 30 min. Samples were then centrifuged at 16,000×g for 30 min at 4° C. Supernatants were transferred to fresh tubes and centrifuged for additional 30 min. Harvested lysates were precleared by incubating with protein G-sepharose (Pharmacia, Uppsala, Sweden) at 4° C. for overnight, gently shaking. Supernatants were harvested by centrifugation at 1000×g for 30 sec. at 4° C. and separated on 7% SDS-polyacrylamide gel and transferred to nitrocellulose membrane. Blots were blocked for 1 hr at room temperature in PBS containing 5% skimmed milk and 0.1% Tween 20 under gentle shaking. Membranes were then incubated overnight with 1:1000 diluted monoclonal anti-PARP antibody (Pharmingen) under gentle shaking. […]

Series [3] deals with hepatocytes in ConA-treated mouse liver. As to the kind of experiment: Con A-treated mouse liver: histologic examination and TUNEL detection of apoptosis. It counts as in vivo, mice. Particulars: 4, 20, 100 mg/kg. The procedure: The present inventors estimated the prevalence of apoptotic cells in the mouse liver to certify the apoptosis-blocking effect of the compound of the present invention specifically in hepatocytes. Mice were treated ConA in the presence or absence of various dosages of compound 33 [A and G: ConA and vehicle treatment, B and H: ConA and compound 33 4 mg/kg treatment, C and I: ConA and compound 33 20 mg/kg treatment, D and J: ConA and compound 33 100 mg/kg treatment] to prepare frozen liver sections. Also, mice were treated with PBS and vehicle (E and K), or PBS and compound 33 100 mg/kg (F and L) to prepare frozen liver sections. Freshly excised mouse liver was immediately immersed in 25% sucrose solution at 4° C. for overnight, then frozen in liquid nitrogen, and cryosectioned into 4 μm.
For histological examination, liver sections were fixed in 1% buffered paraformaldehyde and stained with hematoxilin & eosin (FIGS. 6A to F). To detect apoptotic cells in liver, frozen liver was stained using an ApopTag in situ apoptosis peroxidase detection kit (terminal deoxynucleotidyl transferase-mediated dUTP nick end labeling: TUNEL assay) (Oncor, Gaithersburg, Md.) and DAKO liquid DAB (DAKO, Carpinteria, Calif.)(FIGS. 6G to L). Staining was conducted according to manufacturer's instruction After completion of staining, the samples were observed under an optical microscope. […]

For series [4], the system named is Con A-induced hepatitis in Balb/c mice. The experiment in a line: Con A-induced acute hepatitis mice: plasma aminotransferase activity. It counts as in vivo. The protocol: Female 6-week-old Balb/c mice (Charles River Laboratory, Osaka, Japan) were kept at 22° C. and 55% relative humidity in a 12-h day/night rhythm with free access to food and water. Con A was dissolved in pyrogen-free saline to a concentration of 2.5 mg/ml and was injected via the tail vein in an amount of 20 mg/kg based on Con A. The animals were i.p. injected twice with compound 33 dissolved into a vehicle which consists of olive oil and 10% DMSO, or a vehicle alone, at 1 hr before and 4 h after Con A injection Animals were sacrificed by cervical dislocation at 24 hrs after Con A injection to obtain liver and blood samples.
Blood samples obtained at step 1 were collected at 24 h after Con A injection Plasma AST and ALT activity were measured using Autokit (Youngdong Pharmaceutical Co., Seoul, Korea) following manufacturer's instruction.

Series [5] has as its system caspase-3-like activity (Ac-DEVD-pNA). As to the kind of experiment: Caspase-3-like activity in TNFα/ActD-treated primary rat hepatocytes. The class given is cell-based. Conditions: 100 μM, 8 hrs. The procedure:
(§1) Primary rat hepatocytes were isolated and purified from male Sprague-Dawley rats using a collagenase digestion method. The hepatocytes were purified over 30% Percoll gradient by centrifugation at 1,000×g for 10 min. at 4° C. […] The cells were plated on collagen-coated tissue culture plates at a density of 2×10^5 cells/well in 12-well plates for cell viability analysis or 5×10^6 cells/100 mm dish for enzyme assays. After 18 hrs preculture, the cells were treated with 2,000 units/ml TNFα and 0.2 μg/ml Actinomycin (ActD). Caspase activity and cell viability was determined by colorimetry using a caspase substrate Ac-DEVD-pNA and crystal violet staining method at 8 hrs and 12 hrs, respectively.

Another series concerns primary rat hepatocytes. As to the kind of experiment: Cell viability of TNFα/ActD-treated primary rat hepatocytes (crystal violet). The class given is cell-based. Particulars: added at different time points. The protocol:
as §1

Turning to `CC(C)[C@H](NC(=O)CCc1ccccc1)C1=NOC(Cc2ccccc2)(C(=O)N[C@@H](CC(=O)O)C(=O)COC(=O)c2c(Cl)cccc2Cl)C1` (mixture of isomers) [Compound 32], the IC50 in series [1] fell in the range of 0.1 to 10 µM.
As to `CC(C)[C@H](NC(=O)c1cccc2ccccc12)C1=NOC(Cc2ccccc2)(C(=O)N[C@@H](CC(=O)O)C(=O)COC(=O)c2c(Cl)cccc2Cl)C1` (stereo partly drawn) [Compound 33, (3S)-3-{3-[2-Methyl-(1S)-1-(1-naphthalenecarbonylamino)-propyl]-5-phenylmethyl-4,5-dihydro-isoxazole-5-carbonylamino}-4-keto-5-(2,6-dichlorobenzoyloxy)-pentanoic Acid], the “inhibition of recombinant human caspase activity (FIG. 1)” value in series [2] is on record as “almost completely inhibited all tested caspase activity, only except for caspase 2”. In addition, the “PARP cleavage (85 kDa-cleavage product) caused by Con A (FIG. 7)” value in the series with PARP cleavage was “gradually reduced”. Also, in series [3], the “apoptotic lesions in liver” value is listed as “reduced dose-dependently” and the “cellular histology of liver” value is recorded as “gradually recovered”. The “AST and ALT difference to Con A/vehicle group” value in series [4] (4 mg/kg, second experiment (AST: p=0.2972, ALT: p=0.1378)) is “did not reached at statistically significant level”. Further, the “AST and ALT activities compared with ConA/vehicle group” value in series [4] (20 mg/kg, second experiment (AST: p=0.0174, ALT: p=0.0011)) is “definitely reduced”. Moreover, the “AST activity by the compound itself (no Con A)” value in series [4] (first experiment, not statistically significant (p=0.1033)) is given as “slightly increased”. Also, in series [4] (i.p. twice, 1 hr before and 4 h after Con A, blood at 24 h), the “serum AST and ALT activity elevated by ConA (FIG. 4A, B)” value is reported as “suppressed the elevated enzyme activities in a dose-dependent manner”.
In the case of Z-VAD-fmk, the “caspase-3-like activity increased by TNFα/ActD (FIG. 15A)” value in series [5] is reported as “not different”. Moreover, the “cell viability with delayed addition, comparison with compound 33MP-Na” value in the series on primary rat hepatocytes is “No different results”.
